Our source for the EC50 values is patent US20090192153A1, “NOVEL ADENINE COMPOUND” (priority 2005, published 2009).

Structures are written as SMILES. pEC50: −log10 of the molar value.

For this experiment, the target named is T1, human TLR7 (Homo sapiens, UniProt Q9NYK1).
T1 construct: expressed in transfected cells; host or cells: HEK293 (hTLR7/seap-293), stably transfected
T1 sequence (Q9NYK1 27-1049): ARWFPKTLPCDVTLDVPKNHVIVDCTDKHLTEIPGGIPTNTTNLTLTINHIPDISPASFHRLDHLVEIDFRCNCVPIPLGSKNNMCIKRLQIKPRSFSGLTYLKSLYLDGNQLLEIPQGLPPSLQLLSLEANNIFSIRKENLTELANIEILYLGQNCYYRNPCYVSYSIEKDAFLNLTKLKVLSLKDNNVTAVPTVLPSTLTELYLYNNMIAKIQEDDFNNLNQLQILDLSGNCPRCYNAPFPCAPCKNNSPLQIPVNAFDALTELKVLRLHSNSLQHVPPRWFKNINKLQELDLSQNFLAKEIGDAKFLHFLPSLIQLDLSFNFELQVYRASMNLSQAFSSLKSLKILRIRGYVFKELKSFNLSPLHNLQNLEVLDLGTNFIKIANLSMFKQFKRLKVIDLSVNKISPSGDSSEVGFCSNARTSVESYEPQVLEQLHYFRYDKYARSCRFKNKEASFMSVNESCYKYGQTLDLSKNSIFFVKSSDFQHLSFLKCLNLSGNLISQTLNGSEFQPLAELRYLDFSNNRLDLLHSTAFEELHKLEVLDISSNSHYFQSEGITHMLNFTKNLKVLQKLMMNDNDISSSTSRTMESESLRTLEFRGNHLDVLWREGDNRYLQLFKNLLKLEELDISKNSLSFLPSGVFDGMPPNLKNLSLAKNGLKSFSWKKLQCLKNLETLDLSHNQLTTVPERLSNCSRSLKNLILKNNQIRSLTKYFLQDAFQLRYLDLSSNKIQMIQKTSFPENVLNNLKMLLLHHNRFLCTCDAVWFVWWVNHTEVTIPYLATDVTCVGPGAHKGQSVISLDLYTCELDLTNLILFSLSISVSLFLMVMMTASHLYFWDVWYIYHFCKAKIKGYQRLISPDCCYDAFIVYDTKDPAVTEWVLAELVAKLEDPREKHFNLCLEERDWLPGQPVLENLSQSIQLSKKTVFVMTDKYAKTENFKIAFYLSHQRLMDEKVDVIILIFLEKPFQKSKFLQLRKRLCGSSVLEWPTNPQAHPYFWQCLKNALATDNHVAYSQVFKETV
The experiment in a line: Human TLR7 reporter assay (NF-kB-SEAP in HEK293 cells). The experiment is classed as cell-based. As to conditions: HEK293 cells stably carrying human TLR7 plasmid and NF-kB-SEAP reporter plasmid; 20 hours culture; final concentration 1 nM-10 μM; absorbance 405 nm; read-out: Human TLR7 binding activity (EC50). The protocol:
Human TLR7 Reporter Assay
HEK293 cells in which human TLR7 or rat TLR7 plasmid and reporter plasmid (NF-kB-SEAP) are stably introduced are dispersed in DMEM broth (10% FBS, 1% NEAA, 10 ug/mL blastocidin S HCl, 100 ug/mL Zeocin), and were seeded to 96 well plate per 90 μl/well (hTLR7/seap-293:20000 cells/well, rTLR7/seap-293:25000 cells/well).
Test compound (DMSO stock solution (2 μl) was diluted with the broth (200 μl) by 100 times) was added to the seeded cells to a 96 well plate (10 μl/well) (final concentration; 1 nM-10 μM, common ratio 3). After stirring by tapping side of the plate, the cells were cultured in a CO2 incubator for 20 hours. A substrate (50 μl/well) for reporter assay (substrate for SEAP, pNPP) was added to cells stimulated by test sample. Ten minutes after adding the substrate, the reaction quenching solution (4N NaOH) was added by 50 μl/well to cease enzymatic reaction. Sealing a top seal A on the plate, the absorbance was measured by a micro plate reader (405 nm).
Consider `CCCCOc1nc(N)c2[nH]c(=O)n(CCN3CCCC(C(=O)OC)C3)c2n1` (stereo not drawn) [Example 5, 2-Butoxy-7,8-dihydro-9-[2-(3-methoxycarbonylpiperidin-1-yl)ethyl]-8-oxoadenine], for which the pEC50 was 6.09.
As to `CCCCOc1nc(N)c2[nH]c(=O)n(CCCCCCCCN3CCC(C(=O)OC)CC3)c2n1` [Example 17, 2-Butoxy-7,8-dihydro-9-[8-(4-methoxycarbonylpiperidin-1-yl)octyl]-8-oxoadenine], the pEC50 is 6.83.
Take `CCCCOc1nc(N)c2[nH]c(=O)n(CCCN3CCCC(C(=O)OC)C3)c2n1` (stereo not drawn) [Example 9, 2-Butoxy-7,8-dihydro-9-[3-(3-methoxycarbonylpiperidin-1-yl)propyl]-8-oxoadenine]: the pEC50 is 6.00.
In the case of `CCCCOc1nc(N)c2[nH]c(=O)n(CCCN3CCC(C(=O)OC)CC3)c2n1` [Example 8, 2-Butoxy-7,8-dihydro-9-[3-(4-methoxycarbonylpiperidin-1-yl)propyl]-8-oxoadenine], the pEC50 was 5.91.
Turning to `CCCCOc1nc(N)c2[nH]c(=O)n(CCCCN3CCCC(C(=O)OC)C3)c2n1` (stereo not drawn) [Example 19, 2-Butoxy-7,8-dihydro-9-[4-(3-methoxycarbonylpiperidin-1-yl)butyl]-8-oxoadenine], the pEC50 was 6.20.
As to `CCCCOc1nc(N)c2[nH]c(=O)n(CCN3CCN(CCC(=O)OC)CC3)c2n1` [Example 7, 2-Butoxy-7,8-dihydro-9-[2-{4-(2-methoxycarbonylethyl)piperazin-1-yl}ethyl]-8-oxoadenine], the pEC50 is 5.32.
For `CCCCOc1nc(N)c2[nH]c(=O)n(CCCN3CCCC(CC(=O)OC)C3)c2n1` (stereo not drawn) [Example 12, 2-Butoxy-7,8-dihydro-9-{3-[3-(2-methoxy-2-oxoethyl)piperidin-1-yl]propyl}-8-oxoadenine] the value was 5.79; for `CCCCOc1nc(N)c2[nH]c(=O)n(CCCCCN3CCC(C(=O)OC)CC3)c2n1` [Example 1, 2-Butoxy-7,8-dihydro-9-[5-(4-methoxycarbonylpiperidin-1-yl)pentyl]-8-oxoadenine], 6.84.
`CCCCOc1nc(N)c2[nH]c(=O)n(CCCCCCN3CCC(C(=O)OC)CC3)c2n1` [Example 15, 2-Butoxy-7,8-dihydro-9-[6-(4-methoxycarbonylpiperidin-1-yl)hexyl]-8-oxoadenine]: the pEC50 is 7.02.
In the case of `CCCCOc1nc(N)c2[nH]c(=O)n(CCCN3CCC(CC(=O)OC)CC3)c2n1` [Example 11, 2-Butoxy-7,8-dihydro-9-{3-[4-(2-methoxy-2-oxoethyl)piperidin-1-yl]propyl}-8-oxoadenine], the pEC50 was 5.49.
For the compound `CCCCOc1nc(N)c2[nH]c(=O)n(CCCCCCCN3CCC(C(=O)OC)CC3)c2n1` [Example 16], the pEC50 was 6.84.
In the case of `CCCCOc1nc(N)c2[nH]c(=O)n(CCCCCN3CCCC(CC(=O)OC)C3)c2n1` (stereo not drawn) [Example 3, 2-Butoxy-7,8-dihydro-9-[5-(3-methoxycarbonylmethylpiperidin-1-yl)pentyl]-8-oxoadenine], the pEC50 is 6.24.

As a reminder, the pEC50 is the negative decadic logarithm of the EC50, by convention in mol/L.
